{
  "source": "patent US6924302B2",
  "about": "“Substituted triazole diamine derivatives as kinase inhibitors” (Ortho McNeil Pharmaceutical, Inc., priority 2000, dated 2005)",
  "key": {"[1]": {"target": "T1, VEGF-R (vascular endothelial growth factor receptor-2) (Rattus norvegicus, UniProt O08775)", "T1 construct": "polyhistidine (6xHIS) (N)", "T1 sequence (O08775 786-1343)": "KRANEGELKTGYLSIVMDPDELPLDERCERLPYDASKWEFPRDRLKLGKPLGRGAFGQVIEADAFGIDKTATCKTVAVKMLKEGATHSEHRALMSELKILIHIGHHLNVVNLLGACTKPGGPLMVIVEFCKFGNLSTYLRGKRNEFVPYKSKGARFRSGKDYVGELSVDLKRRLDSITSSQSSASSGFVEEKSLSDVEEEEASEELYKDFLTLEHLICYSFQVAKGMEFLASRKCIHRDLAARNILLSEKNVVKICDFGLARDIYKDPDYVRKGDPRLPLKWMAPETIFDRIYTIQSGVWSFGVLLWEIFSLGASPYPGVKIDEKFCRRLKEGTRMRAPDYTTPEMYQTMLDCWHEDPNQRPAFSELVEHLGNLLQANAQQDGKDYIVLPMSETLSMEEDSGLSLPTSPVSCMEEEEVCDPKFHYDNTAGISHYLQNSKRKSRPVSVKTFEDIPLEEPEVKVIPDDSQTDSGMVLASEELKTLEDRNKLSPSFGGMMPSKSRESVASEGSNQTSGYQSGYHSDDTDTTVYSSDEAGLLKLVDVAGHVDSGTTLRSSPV", "experiment": "VEGF-R Screening Assay", "format": "biochemical", "settings": "Table 1; read-out: VEGF-R IC50", "description": "(§1) 70 μL of the kinase reaction mixture was dispensed into the well of a streptavidin coated FlashPlate™ (Cat. # SMP103, NEN, Boston, Mass.). Then 1 μL of test compound stock in 100% DMSO was added to the wells resulting in a final concentration of 1% DMSO in the reaction with a 100 μL final reaction volume. Next, soluble rat tyrosine kinase containing an N-terminal 6×HIS tag was diluted in 50 mM Tris-HCl pH=8.0, 0.1% BSA at a concentration of 5 ng per μL and 30 μL (150 ng enzyme per test well) was added to each well to initiate the reaction. The reaction was incubated for one hour at 30° C. At the end of the 1-hour incubation, the reaction was terminated by aspirating the reaction mixture from the plate and washing the wells twice with PBS containing 100 mM EDTA. The PLC1 biotinylated peptide substrate became immobilized on the Flashplate™ and the incorporation of ^33P-γ-ATP was measured by reading the plate on a scintillation counter. Inhibition of the enzymatic activity of the VEGF-R was measured by observing a reduced amount of ^33P-γ-ATP incorporated into the immobilized peptide.\nAssays to test compound inhibition of other kinases were preformed using methods that measure the amount of phosphorylation of a biotinylated peptide substrate. Biotinylated peptide substrates were selected from the literature as appropriate for the enzyme being evaluated. […] Assay conditions vary slightly for each protein kinase, for example, insulin receptor kinase requires 10 mM MnCl2 for activity and Calmodulin-dependent protein kinase requires calmodulin and 10 mM CaCl2. These assay conditions are known in the art. The reaction mixture was dispensed into the wells of a streptavidin coated Flashplate and 1 μl drug stock in 100% DMSO was added to a 100 μl reaction volume resulting in a final concentration of 1% DMSO on the reaction. Enzyme was diluted in 50 mM Tris-HCl pH=8.0, 0.1% BSA and add to each well. The reaction was incubated for one hour at 30° C. in the presence of compound. After one hour the reaction mix was aspirated from the plate and the plate was washed with PBS containing 100 mM EDTA. The plate was read on a scintillation counter to determine ^33P-γ-ATP incorporated into the immobilized peptide. Test compounds were assayed in duplicate at 8 concentrations [100 uM, 10 uM, 1 uM, 100 nM, 10 nM, 1 nM, 100 pM, 10 pM]. A maximum and minimum signal for the assay was determined on each plate. The IC50 was calculated from the dose response curve of the percent inhibition of the maximum signal in the assay according to the formula [max signal—background/test compound signal—background (100)=% inhibition] by graphing the percent inhibition against the log concentration of test compound. Known inhibitor compounds appropriate for the kinase being assayed were also included on each plate.\nCDK2 in complex with cyclin A is commercially available (Upstate Biotech, Lake Placid, N.Y.). The CDK4 complex was composed of a mouse CDK4 protein and a mouse Cyclin D1 protein (The mouse CDK4 protein was genetically fused to an N-terminal Flag-epitope tag and the mouse Cyclin D1 protein was fused with an N-terminal AU-1 epitope tag. The genes encoding these proteins were transferred to commercially available baculoviral vectors. The recombinant CDK4/D1 complex was then made by co-infecting commercially available insect cells with viruses carrying these two constructs). […] ERK-1 protein (Discontinued from Calbiochem). EGFR (epidermal growth factor receptor) is purified from human A431 cell membranes (Sigma, St. Louis, Mo., Cat.# E3641)."}, "CDK1:Cyclin-B": {"target": "T2, CDK1:Cyclin-B (Homo sapiens, UniProt P06493)", "T2 construct": "purchased New England Biolabs 6020; host or cells: insect cells", "T2 sequence (P06493 whole entry)": "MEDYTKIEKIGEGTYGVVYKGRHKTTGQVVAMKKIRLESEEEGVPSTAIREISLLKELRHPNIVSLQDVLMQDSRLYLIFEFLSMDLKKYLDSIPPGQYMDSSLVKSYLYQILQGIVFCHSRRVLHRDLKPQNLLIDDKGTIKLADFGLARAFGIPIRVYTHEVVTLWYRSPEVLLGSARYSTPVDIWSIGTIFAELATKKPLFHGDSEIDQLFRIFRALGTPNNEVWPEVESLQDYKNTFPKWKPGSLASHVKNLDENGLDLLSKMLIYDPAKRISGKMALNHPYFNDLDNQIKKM", "T2 sequence (P14635 whole entry partner)": "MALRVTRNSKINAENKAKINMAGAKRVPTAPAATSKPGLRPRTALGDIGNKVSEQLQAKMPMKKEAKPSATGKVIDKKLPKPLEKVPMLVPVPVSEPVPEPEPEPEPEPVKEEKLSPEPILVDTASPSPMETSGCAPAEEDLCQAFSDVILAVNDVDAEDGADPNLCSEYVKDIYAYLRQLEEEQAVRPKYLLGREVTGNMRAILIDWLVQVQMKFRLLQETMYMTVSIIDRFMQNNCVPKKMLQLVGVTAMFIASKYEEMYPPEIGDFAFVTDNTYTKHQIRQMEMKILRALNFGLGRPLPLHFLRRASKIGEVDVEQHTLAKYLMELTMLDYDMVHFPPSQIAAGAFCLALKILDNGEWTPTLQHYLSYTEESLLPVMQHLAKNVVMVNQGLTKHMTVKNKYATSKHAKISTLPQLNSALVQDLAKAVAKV", "experiment": "CDK1 Screening Assay", "format": "biochemical", "settings": "Table 1; read-out: CDK1 IC50", "description": "as §1, with “100 μl” for “100 μL”, “Next, CDK1:Cyclin-B protein” for “Next, soluble rat tyrosine kinase containing an N-terminal 6×HIS tag”, “of 1” for “of 5”, “30 μl (30” for “30 μL (150”, “The histone-H1” for “The PLC1”, “of CDK1” for “of the VEGF-R”\nAssays to test compound inhibition of other kinases were preformed using methods that measure the amount of phosphorylation of a biotinylated peptide substrate. Biotinylated peptide substrates were selected from the literature as appropriate for the enzyme being evaluated. […] Assay conditions vary slightly for each protein kinase, for example, insulin receptor kinase requires 10 mM MnCl2 for activity and Calmodulin-dependent protein kinase requires calmodulin and 10 mM CaCl2. These assay conditions are known in the art. The reaction mixture was dispensed into the wells of a streptavidin coated Flashplate and 1 μl drug stock in 100% DMSO was added to a 100 μl reaction volume resulting in a final concentration of 1% DMSO on the reaction. Enzyme was diluted in 50 mM Tris-HCl pH=8.0, 0.1% BSA and add to each well. The reaction was incubated for one hour at 30° C. in the presence of compound. After one hour the reaction mix was aspirated from the plate and the plate was washed with PBS containing 100 mM EDTA. The plate was read on a scintillation counter to determine ^33P-γ-ATP incorporated into the immobilized peptide. Test compounds were assayed in duplicate at 8 concentrations [100 uM, 10 uM, 1 uM, 100 nM, 10 nM, 1 nM, 100 pM, 10 pM]. A maximum and minimum signal for the assay was determined on each plate. The IC50 was calculated from the dose response curve of the percent inhibition of the maximum signal in the assay according to the formula [max signal—background/test compound signal—background (100)=% inhibition] by graphing the percent inhibition against the log concentration of test compound. Known inhibitor compounds appropriate for the kinase being assayed were also included on each plate. […]"}},
  "note": "pIC50: −log10 of the molar value.",
  "data": [
    {"compound": "Nc1nc(Nc2ccc(S(N)(=O)=O)cc2)nn1C(=O)c1c(F)ccc(F)c1F", "note": "[Cpd 3, 4-[[5-amino-1-(2,3,6-trifluorobenzoyl)-1H-1,2,4-triazol-3-yl]amino]-benzenesulfonamide]", "values": [
      {"measurement": "pIC50", "setting": "[1]", "result": 6.48},
      {"measurement": "pIC50", "setting": "CDK1:Cyclin-B", "result": 8.10}
    ]},
    {"compound": "Nc1nc(Nc2ccc(S(N)(=O)=O)cc2)nn1C(=O)c1ccccc1F", "note": "[Cpd 4, 4-[[5-amino-1-(2-fluorobenzoyl)-1H-1,2,4-triazol-3-yl]amino]-benzenesulfonamide]", "values": [
      {"measurement": "pIC50", "setting": "[1]", "result": 6.41},
      {"measurement": "pIC50", "setting": "CDK1:Cyclin-B", "result": 7.65}
    ]},
    {"compound": "Nc1nc(Nc2ccc(S(N)(=O)=O)cc2)nn1C(=O)c1ccc(F)cc1F", "note": "[Cpd 5, 4-[[5-amino-1-(2,4-difluorobenzoyl)-1H-1,2,4-triazol-3-yl]amino]-benzenesulfonamide]", "values": [
      {"measurement": "pIC50", "setting": "[1]", "result": 6.28},
      {"measurement": "pIC50", "setting": "CDK1:Cyclin-B", "result": 6.84}
    ]},
    {"compound": "Nc1nc(Nc2ccc(S(N)(=O)=O)cc2)nn1C(=O)c1c(F)cccc1C(F)(F)F", "note": "[Cpd 6, 4-[[5-amino-1-[2-fluoro-6-(trifluoromethyl)benzoyl]-1H-1,2,4-triazol-3-yl]amino]-benzenesulfonamide]", "values": [
      {"measurement": "pIC50", "setting": "[1]", "result": 5.09},
      {"measurement": "pIC50", "setting": "CDK1:Cyclin-B", "result": 7.40}
    ]},
    {"compound": "Nc1nc(Nc2ccc(S(N)(=O)=O)cc2)nn1C(=O)c1c(Cl)cccc1Cl", "note": "[Cpd 7, 4-[[5-amino-1-(2,6-dichlorobenzoyl)-1H-1,2,4-triazol-3-yl]amino]-benzenesulfonamide]", "values": [
      {"measurement": "pIC50", "setting": "[1]", "result": "< 5.00"},
      {"measurement": "pIC50", "setting": "CDK1:Cyclin-B", "result": 7.24}
    ]},
    {"compound": "Nc1nc(Nc2ccc(S(N)(=O)=O)cc2)nn1C(=O)c1c(Cl)cc(Cl)cc1Cl", "note": "[Cpd 8, 4-[[5-amino-1-(2,4,6-trichlorobenzoyl)-1H-1,2,4-triazol-3-yl]amino]-benzenesulfonamide]", "values": [
      {"measurement": "pIC50", "setting": "[1]", "result": "< 4.00"},
      {"measurement": "pIC50", "setting": "CDK1:Cyclin-B", "result": 6.87}
    ]},
    {"compound": "Nc1nc(Nc2ccc(S(N)(=O)=O)cc2)nn1C(=O)c1ccccc1[N+](=O)[O-]", "note": "[Cpd 9, 4-[[5-amino-1-(2-nitrobenzoyl)-1H-1,2,4-triazol-3-yl]amino]-benzenesulfonamide]", "values": [
      {"measurement": "pIC50", "setting": "[1]", "result": 5.80},
      {"measurement": "pIC50", "setting": "CDK1:Cyclin-B", "result": 7.41}
    ]},
    {"compound": "COc1cccc(OC)c1C(=O)n1nc(Nc2ccc(S(N)(=O)=O)cc2)nc1N", "note": "[Cpd 10, 4-[[5-amino-1-(2,6-dimethoxybenzoyl)-1H-1,2,4-triazol-3-yl]amino]-benzenesulfonamide]", "values": [
      {"measurement": "pIC50", "setting": "[1]", "result": 6.31},
      {"measurement": "pIC50", "setting": "CDK1:Cyclin-B", "result": 6.60}
    ]},
    {"compound": "Cc1cc(C)c(C(=O)n2nc(Nc3ccc(S(N)(=O)=O)cc3)nc2N)c(C)c1", "note": "[Cpd 11, 4-[[5-amino-1-(2,4,6-trimethylbenzoyl)-1H-1,2,4-triazol-3-yl]amino]-benzenesulfonamide]", "values": [
      {"measurement": "pIC50", "setting": "[1]", "result": "< 4.00"},
      {"measurement": "pIC50", "setting": "CDK1:Cyclin-B", "result": 6.52}
    ]},
    {"compound": "Nc1nc(Nc2ccc(S(N)(=O)=O)cc2)nn1C(=O)c1ccccc1", "note": "[Cpd 12, 4-[(5-amino-1-benzoyl-1H-1,2,4-triazol-3-yl)amino]-benzenesulfonamide]", "values": [
      {"measurement": "pIC50", "setting": "[1]", "result": 7.08},
      {"measurement": "pIC50", "setting": "CDK1:Cyclin-B", "result": 7.34}
    ]},
    {"compound": "Nc1nc(Nc2ccc(S(=O)(=O)N3CCCCC3)cc2)nn1C(=O)c1c(F)cccc1F", "note": "[Cpd 13, 1-(2,6-difluorobenzoyl)-N^3-[4-(1-piperidinylsulfonyl)phenyl]-1H-1,2,4-triazole-3,5-diamine]", "values": [
      {"measurement": "pIC50", "setting": "[1]", "result": 6.27},
      {"measurement": "pIC50", "setting": "CDK1:Cyclin-B", "result": 6.27}
    ]},
    {"compound": "CCOc1ccsc1C(=O)n1nc(Nc2ccc(S(N)(=O)=O)cc2)nc1N", "note": "[Cpd 18, 4-[[5-amino-1-[(3-ethoxy-2-thienyl)carbonyl]-1H-1,2,4-triazol-3-yl]amino]-benzenesulfonamide]", "values": [
      {"measurement": "pIC50", "setting": "[1]", "result": 7.24},
      {"measurement": "pIC50", "setting": "CDK1:Cyclin-B", "result": 7.17}
    ]},
    {"compound": "CC(=O)Nc1ccsc1C(=O)n1nc(Nc2ccc(S(N)(=O)=O)cc2)nc1N", "note": "[Cpd 19, N-[2-[[5-amino-3-[[4-(aminosulfonyl)phenyl]amino]-1H-1,2,4-triazol-1-yl]carbonyl]-3-thienyl]-acetamide]", "values": [
      {"measurement": "pIC50", "setting": "[1]", "result": 6.54},
      {"measurement": "pIC50", "setting": "CDK1:Cyclin-B", "result": 7.47}
    ]},
    {"compound": "Cc1ccc(C(=O)n2nc(Nc3ccc(S(N)(=O)=O)cc3)nc2N)s1", "note": "[Cpd 20, 4-[[5-amino-1-[(5-methyl-2-thienyl)carbonyl]-1H-1,2,4-triazol-3-yl]amino]-benzenesulfonamide]", "values": [
      {"measurement": "pIC50", "setting": "[1]", "result": 7.51},
      {"measurement": "pIC50", "setting": "CDK1:Cyclin-B", "result": 8.36}
    ]},
    {"compound": "Nc1nc(Nc2ccc(S(N)(=O)=O)cc2)nn1C(=O)c1ccc(Br)s1", "note": "[Cpd 21, 4-[[5-amino-1-[(5-bromo-2-thienyl)carbonyl]-1H-1,2,4-triazol-3-yl]amino]-benzenesulfonamide]", "values": [
      {"measurement": "pIC50", "setting": "[1]", "result": 7.64},
      {"measurement": "pIC50", "setting": "CDK1:Cyclin-B", "result": 8.06}
    ]}
  ]
}
